Experimental data as given in patent publication US12331051B2 (priority 2021, dated 2025).

How the values were obtained:
[1] = biological target: T1, ADRa2C (α2C adrenergic receptor) (Homo sapiens, UniProt P18825); assay: cell-based
T1 sequence (P18825 1-462): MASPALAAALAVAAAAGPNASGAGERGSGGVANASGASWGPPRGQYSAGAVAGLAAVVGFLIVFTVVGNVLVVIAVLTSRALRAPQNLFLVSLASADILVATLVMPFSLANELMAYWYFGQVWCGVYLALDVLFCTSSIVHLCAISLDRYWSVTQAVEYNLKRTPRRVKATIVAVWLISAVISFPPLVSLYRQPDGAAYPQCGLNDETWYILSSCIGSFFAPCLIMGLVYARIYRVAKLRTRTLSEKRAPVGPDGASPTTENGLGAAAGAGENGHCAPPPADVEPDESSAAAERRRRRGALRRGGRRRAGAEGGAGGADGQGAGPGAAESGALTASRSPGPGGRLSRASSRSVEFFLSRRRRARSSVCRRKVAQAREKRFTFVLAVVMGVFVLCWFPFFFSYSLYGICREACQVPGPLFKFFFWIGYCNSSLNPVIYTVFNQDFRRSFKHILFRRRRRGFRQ

[2] = tested on: prefrontal cortex region of mice; assay: Spine density analysis in the prefrontal cortex after FST; format: in vivo, mouse; conditions: both sexes, 1 mg/kg, ~26 hour after treatment
Description: Following testing in the FST, brains were collected for spine density analysis in the prefrontal cortex region (˜26 hour after treatment; FIG. 25H).

stress naive mice = assay: Open field test (OFT), stress naive mice; format: in vivo, mouse
Description: In brief, stress naive mice were treated (IP injection) with either saline (control) or single dose of the “E559 polymorph” at 0.3, 1, or 3 mg/kg dose levels and were evaluated 24 hours (OFT) and […] after treatment. The OFT was performed described in Example 13. The FST was performed as previously described in (Aguilar-Valles et al., Nature, 2021, 590, p315-319). Briefly FST was performed 24-hour post treatment by placing the mice (one by one) in a 4-liter wide-mouthed flask of 35° C. water. Mice activities were recorded for 6 minutes and assessed for total time the animal remains immobile, a sign of depressive-like behavior. FIG. 25A depicts the study design where female/male mice (n=10/group/sex) were treated by IP injection with the “E559 polymorph” or vehicle (saline) followed by open field and force swim test 24 hours post treatment. FIGS. 25B and 25E represent the total distance travelled in the open field test 24 hours after vehicle or the “E559 polymorph” in female and male mice, respectively. FIGS. 25C and 25F represent the time in the center of the open field by female and male mice, respectively. FIGS. 25D and 25G represent the immobility time during the last 4 minutes of the forced swim test in female and male mice, respectively. Horizontal lines represent the mean±standard error of the mean (S.E.M.) and asterisks indicate statistical significances.

[3] = biological target: T2, Serotonin 1B receptor (5-HT1BR) (Homo sapiens, UniProt P28222); assay: Functional assay in HEK-293 cells (cAMP); format: cell-based
T2 construct: expressed in transfected cells; host or cells: HEK-293
Description: Neuro-receptor binding and functional effects of the “E559 polymorph” was examined by analyzing binding affinity [Ki (nM)], functional agonist activity [EC50 (nM)], and functional antagonist activity [IC50 (nM)] against a panel of key receptors in neurophysiological disorders. Binding and functional assays were performed at “E559 polymorph” concentrations of 0.0003, 0.003, 0.01, 0.03, 0.1, 0.3, 1, and 10 μM. In binding assays, cell membrane homogenates, expressing each receptor target, were incubated with the corresponding radio-ligand in absence or presence of several concentration of the “E559 polymorph” compound. The measurement of binding affinity of the “E559 polymorph” is represented in TABLE XIII by Ki (nM) which was calculated as percent inhibition of the binding of a radioactively labeled reference ligand at each receptor. In functional assays the HEK-293 cells expressing each receptor target were suspended in buffer and distribute in microplates and incubated for 30 minutes at room temperature or 37° C. in the presence of buffer alone (basal control), the reference agonist or antagonist, or the “E559 polymorph. Following incubation, the cells were lysed and the appropriate fluorescent probe (Ca2+ flux, cAMP, or IP1) were added for 60 minutes to measure the fluorescence transfer at the appropriate wavelength using a microplate reader. The cellular agonist effect (EC50) was calculated as a percent of control response to a known reference agonist and the cellular antagonist effect (IC50) was calculated as a percent inhibition of control reference agonist response for each receptor.
The functional agonist activity [EC50 (nM), Emax], and functional antagonist activity [IC50 (nM)] of the 5R:8S stereoisomer of the “E559 polymorph” (5R:8S E558) was compared with the “E559 polymorph” (a 5R:8R stereoisomer) at selected serotonin receptors. The assays were performed as described in Example 6.

[4] = tested on: primary rat embryonic cortical neurons; assay: In vitro dendritogenesis and spinogenesis assays, Sholl analysis; format: cell-based
Description: The ability of the “E559 polymorph” to induce neural plasticity was evaluated in vitro. In vitro dendritogenesis and spinogenesis assays were conducted using primary rat embryonic cortical neurons. Briefly, cultured primary cortical neurons (rat) were treated at day in vitro (DIV) 3 for 3 hours with increasing concentrations (1, 10 and 100 nM, 1 and […]) of the “E559 polymorph” and morphological changes in dendritic arbor complexity (dendritogenesis) were assessed at DIV6 by immunofluorescent staining of fixed neurons with microtubule-associated protein 2 (MAP2, a microtubule marker), F-actin (cytoskeletal marker), and phalloidin (actin filament marker) followed by fluorescent microscopy and Sholl analysis of neurons' images. […] The spine density assessments (spinogenesis) were made on DIV 18. The cell viability assessments were made on DIV 6 by using the Neurite Outgrowth Staining Kit which includes fluorescent probes for dead and live neuronal cells. Ketamine was used as a comparator and positive control. Ketamine is known to induce dendritogenesis and its effects on synaptic plasticity are believed to mediate its antidepressant effects (Aguilar-Valles et al., Nature, 2021, 590, p315-319). Representative images of MAP2 stained rat cortical neurons treated with vehicle (no drug control) or with “E559 polymorph” is shown in FIG. 18A.
Horizontal lines in all figure panels represent the means±standard error of the mean (S.E.M.).

T2 sequence (P28222 whole entry): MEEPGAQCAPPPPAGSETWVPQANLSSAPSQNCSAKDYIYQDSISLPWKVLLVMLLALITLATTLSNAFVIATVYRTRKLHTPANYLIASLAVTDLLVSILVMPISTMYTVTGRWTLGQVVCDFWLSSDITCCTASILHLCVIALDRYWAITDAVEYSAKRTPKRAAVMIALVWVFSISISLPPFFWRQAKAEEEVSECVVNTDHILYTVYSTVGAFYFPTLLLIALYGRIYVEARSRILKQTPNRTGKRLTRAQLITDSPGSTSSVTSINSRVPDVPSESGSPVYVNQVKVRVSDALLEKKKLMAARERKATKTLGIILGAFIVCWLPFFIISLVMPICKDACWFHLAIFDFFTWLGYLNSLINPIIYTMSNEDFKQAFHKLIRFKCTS

Compound CCN(CC)C(=O)[C@@H]1C=C2c3cccc4[nH]c(Br)c(c34)C[C@H]2N(C)C1 [E559, (5R, 8R)-2-Bromo-9,10-didehydro-N,N-diethyl-6-methylergoline-8-carboxamide hemi-D-tartrate] has an EC50 [1] of 0.0103 µM, an Emax [1] of 40.5% and a Kb [1] of 0.016 µM. The “average spine density in prefrontal cortex” value [2] was “significant increase in the average spine density”, the “increase in exploration of the arena center (time in center), maximal effect” value (stress naive mice; female mice, IP 1 mg/kg, 24 hours after treatment) was 88.18 ± 18.89 s and the “exploration of the arena center” value (stress naive mice; female mice, IP 1 and 3 mg/kg, 24 hours after treatment) was “increased exploration of the arena center”. The “increased exploration of the stressogenic area of the open field” value (stress naive mice; male mice, IP 0.3, 1 or 3 mg/kg) was “not evident in male mice”, the IC50 [3] was over 10 µM and the EC50 ([3]; Functional (Agonist) EC50 (nM), cAMP) was 6.69 nM. The EC50 ([3]; Functional Assay (agonist) EC50 (nM), cAMP, ligand 5-HT) was 6.96 nM, the Emax ([3]; HEK293, cAMP, ligand 5-HT, read-out: Functional Assay (agonist) Emax) was 100% and the “lowest concentration at which increase in neuronal plasticity reached statistical significance” value ([4]; 3 hours treatment at DIV3) was 1 µM. For the same compound, the “lowest concentration at which increase in neuronal plasticity was detectable” value ([4]; 3 hours treatment at DIV3) was 1 nM, the “total length of the dendritic arbor” value ([4]; DIV6, 1 and 10 μM) was “total length of the dendritic arbor was also increased” and the “total dendrites crossing the Sholl radii” value ([4]; DIV6, 1 and 10 μM significant vs control) was “significantly increased the number of total dendrites crossing the Sholl radii”. The spine density ([4]; DIV 18, 3-hour incubation at 1 and 10 μM) was “increased the spine density”.
